The values that follow come from ChEMBL document CHEMBL1149697, “Identification of dissociated non-steroidal glucocorticoid receptor agonists” (Bioorg Med Chem Lett, 2007).

Bounds are passed on as bounds.

In one test the target is T1, Glucocorticoid receptor (Homo sapiens, UniProt P04150).
T1 sequence (P04150 whole entry): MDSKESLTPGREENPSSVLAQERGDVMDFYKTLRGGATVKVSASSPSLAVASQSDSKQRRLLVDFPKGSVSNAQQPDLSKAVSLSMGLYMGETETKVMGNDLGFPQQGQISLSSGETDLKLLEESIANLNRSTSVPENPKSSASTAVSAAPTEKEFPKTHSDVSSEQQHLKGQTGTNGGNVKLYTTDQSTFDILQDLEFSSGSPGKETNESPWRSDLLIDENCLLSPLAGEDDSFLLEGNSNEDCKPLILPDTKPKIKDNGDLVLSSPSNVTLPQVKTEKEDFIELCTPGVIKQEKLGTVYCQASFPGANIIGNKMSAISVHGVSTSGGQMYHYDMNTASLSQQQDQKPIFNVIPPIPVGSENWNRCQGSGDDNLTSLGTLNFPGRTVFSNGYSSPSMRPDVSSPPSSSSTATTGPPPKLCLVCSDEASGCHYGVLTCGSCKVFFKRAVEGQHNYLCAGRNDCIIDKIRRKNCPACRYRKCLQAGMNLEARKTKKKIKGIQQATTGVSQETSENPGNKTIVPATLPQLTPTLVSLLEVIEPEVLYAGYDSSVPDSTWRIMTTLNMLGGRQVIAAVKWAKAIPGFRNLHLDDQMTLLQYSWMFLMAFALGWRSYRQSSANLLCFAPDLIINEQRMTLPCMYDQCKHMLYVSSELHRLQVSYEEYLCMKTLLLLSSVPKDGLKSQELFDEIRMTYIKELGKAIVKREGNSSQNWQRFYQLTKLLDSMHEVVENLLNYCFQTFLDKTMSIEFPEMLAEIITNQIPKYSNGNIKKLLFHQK
Test: not given
The compound `COc1ccc(F)cc1C(C)(C)CC(O)(Cc1cccc(C)c1)C(F)(F)F` (configuration not stated) showed an IC50 of 580 nM.

The compound `COc1ccc(F)cc1C(C)(C)CC(O)(Cc1cccc(C#N)c1)C(F)(F)F` (configuration not stated) gave an IC50 of 81 nM. Compared with the last compound, the IC50 is about 7.2-fold lower.

In the case of `COc1ccc(F)cc1C(C)(C)CC(O)(Cc1cc(Cl)ccc1Cl)C(F)(F)F` (configuration not stated), the IC50 stood at 45 nM.

For `COc1ccc(F)cc1C(C)(C)CC(O)(Cc1c(C)ccc2ccccc12)C(F)(F)F` (configuration not stated), the IC50 is 64 nM.

With `COc1ccc(F)cc1C(C)(C)CC(O)(Cc1ccccc1Br)C(F)(F)F` (configuration not stated), inhibition was half-maximal at 205 nM (IC50).

`COc1ccc(CC(O)(CC(C)(C)c2cc(F)ccc2OC)C(F)(F)F)cc1` (configuration not stated) displayed an IC50 of 1250 nM. Compared with the last compound, the IC50 is about 6.1-fold higher.

For the compound `COc1ccc(F)cc1C(C)(C)CC(O)(Cc1ccccc1C)C(F)(F)F` (configuration not stated), the midpoint of inhibition, the IC50, lay at 855 nM. This IC50 and that of the compound before are within 1.5-fold of each other.

`COc1ccc(F)cc1C(C)(C)CC(O)(Cc1c(Cl)cccc1Cl)C(F)(F)F` (configuration not stated) displayed an IC50 of 580 nM.

`COc1ccc(F)cc1C(C)(C)CC(O)(Cc1cccc2ccccc12)C(F)(F)F` (configuration not stated) yielded an IC50 of 120 nM.

For `COc1ccc(F)cc1C(C)(C)CC(O)(Cc1ccc(Cl)cc1Cl)C(F)(F)F` (configuration not stated), the IC50 is 68 nM. This IC50 is about 1.8-fold lower than that of the compound before.

Take `COc1ccc(F)cc1C(C)(C)CC(O)(Cc1cccc(Cl)c1Cl)C(F)(F)F` (configuration not stated): the IC50 was found to be 76 nM.

Compound `COc1ccc(F)cc1C(C)(C)CC(O)(Cc1ccccc1F)C(F)(F)F` (configuration not stated) showed an IC50 of 370 nM. This IC50 is about 4.9-fold higher than that of the compound before.

As to `COc1ccc(F)cc1C(C)(C)CC(O)(Cc1ccc(C=O)cc1)C(F)(F)F` (configuration not stated), the IC50 came to 20 nM.

`COc1ccc(F)cc1C(C)(C)CC(O)(Cc1ccc2ccccc2c1)C(F)(F)F` (configuration not stated) came in with an IC50 of 275 nM.

A further test concerns the target T2, Progesterone receptor (Homo sapiens, UniProt P06401).
T2 sequence (P06401 whole entry): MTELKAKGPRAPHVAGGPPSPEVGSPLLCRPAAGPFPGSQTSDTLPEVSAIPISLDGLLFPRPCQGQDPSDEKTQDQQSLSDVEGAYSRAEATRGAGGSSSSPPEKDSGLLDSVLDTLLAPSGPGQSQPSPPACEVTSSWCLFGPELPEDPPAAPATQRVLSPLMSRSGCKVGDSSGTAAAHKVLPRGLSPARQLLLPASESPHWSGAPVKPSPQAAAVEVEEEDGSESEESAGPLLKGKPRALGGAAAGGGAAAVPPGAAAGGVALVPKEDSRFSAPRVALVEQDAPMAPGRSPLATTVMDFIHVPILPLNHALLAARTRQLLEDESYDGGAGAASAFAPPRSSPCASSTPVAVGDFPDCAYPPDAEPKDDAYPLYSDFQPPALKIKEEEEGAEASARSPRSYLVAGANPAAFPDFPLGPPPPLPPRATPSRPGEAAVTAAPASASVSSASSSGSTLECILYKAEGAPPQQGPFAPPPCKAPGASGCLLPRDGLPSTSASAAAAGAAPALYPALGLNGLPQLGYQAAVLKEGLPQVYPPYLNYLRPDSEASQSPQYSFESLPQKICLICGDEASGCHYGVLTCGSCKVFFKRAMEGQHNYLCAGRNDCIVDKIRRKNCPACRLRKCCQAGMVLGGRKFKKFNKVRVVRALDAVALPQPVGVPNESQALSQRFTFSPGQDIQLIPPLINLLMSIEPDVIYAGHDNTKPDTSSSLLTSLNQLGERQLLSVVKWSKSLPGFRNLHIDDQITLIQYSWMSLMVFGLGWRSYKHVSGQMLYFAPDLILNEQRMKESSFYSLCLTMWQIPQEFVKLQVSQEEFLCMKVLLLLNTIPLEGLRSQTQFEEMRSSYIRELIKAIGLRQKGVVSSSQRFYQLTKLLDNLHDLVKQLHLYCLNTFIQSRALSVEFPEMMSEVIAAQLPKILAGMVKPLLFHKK
As to the kind of experiment: Displacement of TAMRA labeled mifepristone at human progesterone receptor in insect cell.
`COc1ccc(F)cc1C(C)(C)CC(O)(Cc1cccc(C)c1)C(F)(F)F` (configuration not stated) had an IC50 of more than 1050 nM.

With `COc1ccc(F)cc1C(C)(C)CC(O)(Cc1cccc(C#N)c1)C(F)(F)F` (configuration not stated), the IC50 is more than 2000 nM.

Turning to `COc1ccc(F)cc1C(C)(C)CC(O)(Cc1cc(Cl)ccc1Cl)C(F)(F)F` (configuration not stated), the IC50 is more than 2000 nM.

The compound `COc1ccc(F)cc1C(C)(C)CC(O)(Cc1c(C)ccc2ccccc12)C(F)(F)F` (configuration not stated) had an IC50 of more than 2000 nM.

For the compound `COc1ccc(F)cc1C(C)(C)CC(O)(Cc1ccccc1Br)C(F)(F)F` (configuration not stated), the IC50 was more than 512 nM.

`COc1ccc(CC(O)(CC(C)(C)c2cc(F)ccc2OC)C(F)(F)F)cc1` (configuration not stated) came in with an IC50 of more than 1420 nM.

Consider `COc1ccc(F)cc1C(C)(C)CC(O)(Cc1ccccc1C)C(F)(F)F` (configuration not stated), for which the IC50 was more than 1130 nM.

Take `COc1ccc(F)cc1C(C)(C)CC(O)(Cc1c(Cl)cccc1Cl)C(F)(F)F` (configuration not stated): the IC50 is more than 2000 nM.

On to `COc1ccc(F)cc1C(C)(C)CC(O)(Cc1cccc2ccccc12)C(F)(F)F` (configuration not stated), for which the IC50 was more than 2000 nM.

Consider `COc1ccc(F)cc1C(C)(C)CC(O)(Cc1ccc(Cl)cc1Cl)C(F)(F)F` (configuration not stated), for which the IC50 was determined as 665 nM. This lies in the sub-micromolar range.

`COc1ccc(F)cc1C(C)(C)CC(O)(Cc1cccc(Cl)c1Cl)C(F)(F)F` (configuration not stated): the IC50 came out at 1300 nM.

`COc1ccc(F)cc1C(C)(C)CC(O)(Cc1ccccc1F)C(F)(F)F` (configuration not stated) gave an IC50 of more than 2000 nM.

Compound `COc1ccc(F)cc1C(C)(C)CC(O)(Cc1ccc(C=O)cc1)C(F)(F)F` (configuration not stated) showed an IC50 of more than 2000 nM.

For the compound `COc1ccc(F)cc1C(C)(C)CC(O)(Cc1ccc2ccccc2c1)C(F)(F)F` (configuration not stated), the IC50 is more than 2000 nM.

Another test addresses T3, Mineralocorticoid receptor (Homo sapiens, UniProt P08235).
T3 sequence (P08235 whole entry): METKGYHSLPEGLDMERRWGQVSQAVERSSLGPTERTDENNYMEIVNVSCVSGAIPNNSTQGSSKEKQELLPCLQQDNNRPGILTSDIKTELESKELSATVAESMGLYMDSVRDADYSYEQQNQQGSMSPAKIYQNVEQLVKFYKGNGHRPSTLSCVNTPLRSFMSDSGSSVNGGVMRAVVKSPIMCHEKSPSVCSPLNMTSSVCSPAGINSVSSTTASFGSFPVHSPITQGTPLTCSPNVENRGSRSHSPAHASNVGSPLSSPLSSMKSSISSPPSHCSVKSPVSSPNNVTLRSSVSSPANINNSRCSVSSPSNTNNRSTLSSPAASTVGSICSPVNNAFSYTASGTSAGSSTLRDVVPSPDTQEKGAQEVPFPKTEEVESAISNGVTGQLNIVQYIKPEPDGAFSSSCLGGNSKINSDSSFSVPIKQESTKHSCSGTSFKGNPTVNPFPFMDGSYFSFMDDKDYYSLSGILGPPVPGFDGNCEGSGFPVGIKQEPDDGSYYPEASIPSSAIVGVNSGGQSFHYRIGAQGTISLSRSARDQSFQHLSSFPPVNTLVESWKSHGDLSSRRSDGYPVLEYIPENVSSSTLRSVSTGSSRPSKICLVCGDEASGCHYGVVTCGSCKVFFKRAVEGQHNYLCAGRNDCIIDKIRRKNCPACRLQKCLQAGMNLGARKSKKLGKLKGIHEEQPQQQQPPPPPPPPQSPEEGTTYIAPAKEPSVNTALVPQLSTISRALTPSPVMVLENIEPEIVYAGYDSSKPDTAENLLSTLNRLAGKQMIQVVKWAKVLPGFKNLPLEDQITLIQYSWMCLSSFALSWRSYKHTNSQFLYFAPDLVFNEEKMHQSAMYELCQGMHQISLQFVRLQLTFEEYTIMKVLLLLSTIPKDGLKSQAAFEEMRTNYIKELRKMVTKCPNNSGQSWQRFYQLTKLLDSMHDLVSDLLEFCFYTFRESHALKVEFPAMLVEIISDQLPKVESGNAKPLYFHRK
As to the kind of experiment: Displacement of TAMRA labeled dexamethasone at human mineralocorticoid receptor in insect cell.
With `COc1ccc(F)cc1C(C)(C)CC(O)(Cc1cccc(C)c1)C(F)(F)F` (configuration not stated), the IC50 was more than 1050 nM.

Consider `COc1ccc(F)cc1C(C)(C)CC(O)(Cc1cccc(C#N)c1)C(F)(F)F` (configuration not stated), for which the IC50 was 400 nM.

The compound `COc1ccc(F)cc1C(C)(C)CC(O)(Cc1cc(Cl)ccc1Cl)C(F)(F)F` (configuration not stated) came in with an IC50 of 535 nM.

The compound `COc1ccc(F)cc1C(C)(C)CC(O)(Cc1c(C)ccc2ccccc12)C(F)(F)F` (configuration not stated) displayed an IC50 of 450 nM.

In turn, `COc1ccc(F)cc1C(C)(C)CC(O)(Cc1ccccc1Br)C(F)(F)F` (configuration not stated) displayed an IC50 of more than 512 nM.

For `COc1ccc(CC(O)(CC(C)(C)c2cc(F)ccc2OC)C(F)(F)F)cc1` (configuration not stated), the concentration for half-maximal inhibition (IC50) is more than 1420 nM.

Turning to `COc1ccc(F)cc1C(C)(C)CC(O)(Cc1ccccc1C)C(F)(F)F` (configuration not stated), the IC50 is more than 1130 nM.

`COc1ccc(F)cc1C(C)(C)CC(O)(Cc1c(Cl)cccc1Cl)C(F)(F)F` (configuration not stated): the IC50 came out at 1100 nM.

Consider `COc1ccc(F)cc1C(C)(C)CC(O)(Cc1cccc2ccccc12)C(F)(F)F` (configuration not stated), for which the IC50 was determined as 1400 nM.

For `COc1ccc(F)cc1C(C)(C)CC(O)(Cc1ccc(Cl)cc1Cl)C(F)(F)F` (configuration not stated), the IC50 is 875 nM. Against the preceding compound, the IC50 is about 1.6-fold lower.

On to `COc1ccc(F)cc1C(C)(C)CC(O)(Cc1cccc(Cl)c1Cl)C(F)(F)F` (configuration not stated), for which the IC50 came to 900 nM.

With `COc1ccc(F)cc1C(C)(C)CC(O)(Cc1ccccc1F)C(F)(F)F` (configuration not stated), the IC50 came out at 1350 nM.

`COc1ccc(F)cc1C(C)(C)CC(O)(Cc1ccc(C=O)cc1)C(F)(F)F` (configuration not stated) returned an IC50 of 650 nM.

Compound `COc1ccc(F)cc1C(C)(C)CC(O)(Cc1ccc2ccccc2c1)C(F)(F)F` (configuration not stated) had an IC50 of more than 2000 nM.

What is called IC50 is the point on the concentration scale where inhibition reaches its midpoint. Read a high IC50 as lower potency.
